Key:
[1] = Clinical Example 1: tolerability, safety and bleeding time; type: in vivo, human; details: healthy subjects; multiple oral dosing, 5 to 20 mg for 10 days
Experimental: (§1) A Comparative Study of the Effects of Prasugrel and Clopidogrel on Platelet Function in Healthy Subjects • Background: Antiplatelet agents such as aspirin and clopidogrel are effective in the secondary prevention of atherothrombotic events. […] This study examined the tolerability, safety, and IPA profile of prasugrel compared with clopidogrel. • Method: A double-blind, placebo-controlled, multiple-dose study of healthy male volunteers randomized into 5 groups (n=6): prasugrel (5, 10 and 20 mg), clopidogrel (75 mg), and placebo. Study medications were taken once daily for 10 days.

[2] = test system: platelet aggregation to 20 μM ADP; experiment: Clinical Example 2: IPA to 20 μM ADP by turbidometric aggregometry and non-responder rates in aspirin-treated patients; type: in vivo, human; details: for pre-dose IPA at day 28 / IPA at 4 h after LD: 20 μM ADP
Experimental: This study analyzed IPA and non-responder rates with prasugrel (Pras), a novel P2Y12 antagonist, vs. clopidogrel (Clop) in aspirin-treated patients. • Methods: After 7-days on aspirin 325 mg, 101 subjects were randomized to 1 of 5 dosing regimens, a loading dose (LD) on day 1 and a daily maintenance dose (MD) on days 2-28: prasugrel—40 mg LD/5 mg MD, 40 mg LD/7.5 mg MD, 60 mg LD/10 mg MD, or 60 mg LD/15 mg MD or clopidogrel—300 mg LD/75 mg MD). IPA to 20 μM ADP was measured by turbidometric aggregometry.

[3] = test system: platelet aggregation induced by 20 μM ADP; experiment: Clinical Example 1: multiple-dose study, platelet aggregation induced by 20 μM ADP measured turbidometrically; type: in vivo, human; details: for IPA: 24 hours after 10th dose, mean ± SE, n = 6
Experimental: as §1

[4] = test system: ADP (5 μM and 20 μM)-induced platelet aggregation; experiment: Clinical Example 3: responders by ADP-induced platelet aggregation (turbidometric aggregometry) after loading dose; type: in vivo, human; details: for responders: healthy volunteers
Excerpt: Clopidogrel Responders and Nonresponders: A Comparison with Prasugrel a Novel Thienopyridine P2Y12 Receptor Antagonist • Background: Lower levels of inhibition of platelet aggregation (IPA) with clopidogrel have been associated with a higher risk of adverse events after percutaneous coronary intervention (PCI). Thresholds of IPA, objectively defined with Bayesian classification theory, were used to identify responders and non-responders to clopidogrel and prasugrel, a novel thienopyridine P2Y12 receptor antagonist. • Methods: An integrated database of ADP (5 μM and 20 μM)-induced platelet aggregation as measured by turbidometric aggregometry was analyzed from three single-center cross-over clinical pharmacology studies. Subjects (N=112, aged 18-65 years) were healthy volunteers with a baseline maximum platelet aggregation (MPA) of >70% to 20 μM ADP and were randomized to either a clopidogrel 300 mg loading dose (LD) or a prasugrel 60 mg LD. The change in MPA (ΔMPA) from baseline and IPA were evaluated at both 4-5 and 24 hours after the LD. A responder was defined as an individual achieving either a ΔMPA≧15% or an IPA≧20% in response to 20 μM ADP.

platelet aggregation = experiment: Preclinical studies of prasugrel base versus clopidogrel; details: preclinical studies involving the base of prasugrel
[5] = 5 μM ADP, prasugrel 60 mg LD, N = 91
[6] = 20 μM ADP, prasugrel 60 mg LD, N = 91
[7] = 5 μM ADP, clopidogrel 300 mg LD, N = 112
[8] = 20 μM ADP, clopidogrel 300 mg LD, N = 112

## CC(=O)Oc1cc2c(s1)CCN(C(C(=O)C1CC1)c1ccccc1F)C2 (stereo not drawn) [prasugrel, 2-Acetoxy-5-(α-cyclopropylcarbonyl-2-fluorobenzyl)-4,5,6,7-tetrahydrothieno[3,2-c]pyridine]
[1]
  tolerability: well tolerated
[2]; prasugrel 10 mg MD, aspirin-treated patients
  pre-dose IPA at day 28: 57.5%
[2]; prasugrel 15 mg MD, aspirin-treated patients
  pre-dose IPA at day 28: 65.8%
[2]; prasugrel 40 mg LD, aspirin-treated patients
  IPA at 4 h after LD: 60.6%
[2]; prasugrel 60 mg LD, aspirin-treated patients
  IPA at 4 h after LD: 68.4%
[2]; prasugrel LD of 40 or 60 mg and MD of 10 or 15 mg, aspirin-treated patients
  rate of non-responders compared to standard clopidogrel LD and MD: lower rate of non-responders
[3]; prasugrel 5 mg once daily for 10 days, 20 μM ADP
  IPA: 39.2 ± 4.4%
[3]; prasugrel 10 mg once daily for 10 days, 20 μM ADP
  IPA: 58.2 ± 4.9%
[3]; prasugrel 20 mg once daily for 10 days, 20 μM ADP
  IPA: 68.3 ± 5.4%
[3]; prasugrel 5, 10 and 20 mg once daily for 10 days, 24 hours after the final dose, 20 μM ADP
  IPA, range over doses: 39.2%-68.3
[4]; [5]
  Number of Responders, IPA ≧ 25%: 91
  Number of Responders, ΔMPA ≧ 20%: 91
  Percentage of Responders, IPA ≧ 25%: 100%
  Percentage of Responders, ΔMPA ≧ 20%: 100%
[4]; 5 μM ADP, prasugrel 60 mg LD
  responders: 100%
[4]; [6]
  Number of Responders, IPA ≧ 20%: 91
  Number of Responders, ΔMPA ≧ 15%: 91
  Percentage of Responders, IPA ≧ 20%: 100%
  Percentage of Responders, ΔMPA ≧ 15%: 100%
[4]; 20 μM ADP, prasugrel 60 mg LD
  responders: 100%
Platelet aggregation
  potency relative to clopidogrel: at least 10 times

## COC(=O)[C@H](c1ccccc1Cl)N1CCc2sccc2C1 [clopidogrel, reference compound]
[2]; clopidogrel 75 mg MD, aspirin-treated patients
  pre-dose IPA at day 28: 31.2%
[2]; clopidogrel 75 mg MD, pre-dose during MD
  non-responder rate (not achieving ≧20% IPA): 46%
[2]; clopidogrel 300 mg LD, 4 h after LD
  non-responder rate (not achieving ≧20% IPA): 52%
[2]; clopidogrel 300 mg LD, aspirin-treated patients
  IPA at 4 h after LD: 30.0%
[3]; clopidogrel 75 mg once daily for 10 days
  subjects demonstrating minimal IPA at Day 10: 2 of 6
[3]; clopidogrel 75 mg once daily for 10 days, 20 μM ADP
  IPA: 15.7%
[3]; clopidogrel 75 mg once daily for 10 days, 20 μM ADP, listed as Clopidogrel
  IPA: 15.7 ± 6.8%
[4]; [7]
  Number of Responders, IPA ≧ 25%: 87
  Number of Responders, ΔMPA ≧ 20%: 82
  Percentage of Responders, IPA ≧ 25%: 78%
  Percentage of Responders, ΔMPA ≧ 20%: 73%
[4]; 5 μM ADP, clopidogrel 300 mg LD
  responders: approximately 75%
[4]; [8]
  Number of Responders, IPA ≧ 20%: 64
  Number of Responders, ΔMPA ≧ 15%: 68
  Percentage of Responders, IPA ≧ 20%: 57%
  Percentage of Responders, ΔMPA ≧ 15%: 61%
[4]; 20 μM ADP, clopidogrel 300 mg LD
  responders: 60%

Reference: patent US20090156632A1, “DOSAGE REGIMEN FOR PRASUGREL” (priority 2005, published 2009)
